The text below walks through data of PubChem BioAssay (NCI).

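Each compound was tested at five concentrations against cells in 96-well plates for 48 hours. GI50 marks 50% less growth. At the TGI there is no net growth.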

Some test systems named below: BT-549 breast; HCT-116 colon; HCT-15 colon; NCI-H522 lung; OVCAR-4 ovarian; SK-MEL-2 melanoma; SK-OV-3 ovarian; SW-620 colon; TK-10 renal; SR leukemia.
What all share (assay): inhibition of tumour cell growth, NCI panel, 48 h

In the case of `CC1=CC2C(C(C)C)CC1C1C(=O)OC(=O)C21` (stereo unspecified), the TGI in the test on BT-549 breast, in the test on HCT-116 colon, in the test on HCT-15 colon, in the test on NCI-H522 lung, with OVCAR-4 ovarian and in the test with SK-MEL-2 melanoma was greater than 100 µM throughout. The TGI with SK-OV-3 ovarian, with SW-620 colon and in the test on TK-10 renal was greater than 100 µM each time.
As for `Cc1cc2c(cc1C)[n+](=O)c(C(=O)/C=C/c1ccccc1Cl)c(C)n2[O-]`, the TGI was 75.3 µM with HCT-15 colon; 26.7 µM with NCI-H522 lung; greater than 100 µM in the test on OVCAR-4 ovarian; 68.7 µM with SK-MEL-2 melanoma; 73.1 µM in the test on SK-OV-3 ovarian; greater than 100 µM with SW-620 colon. This compound returned a TGI in the test with TK-10 renal of 57.3 µM.
Take `C[n+]1ccc(-c2c3nc(c(-c4ccc5c(ccc[n+]5C)c4)c4ccc([nH]4)c(-c4cc[n+](C)cc4)c4nc(c(-c5ccc6c(ccc[n+]6C)c5)c5ccc2[nH]5)C=C4)C=C3)cc1`: the GI50 is 35.9 µM in the test with BT-549 breast; greater than 50 µM in the test with HCT-116 colon; greater than 50 µM with HCT-15 colon; greater than 50 µM in the test on NCI-H522 lung; 27.5 µM with OVCAR-4 ovarian; 22.4 µM with SK-MEL-2 melanoma. Besides, the GI50 with SK-OV-3 ovarian was greater than 50 µM; in the test on SW-620 colon it was greater than 50 µM; in the test on TK-10 renal it was 10.1 µM. Further, the TGI in the test on BT-549 breast, with HCT-116 colon, in the test on HCT-15 colon, in the test on NCI-H522 lung, in the test with OVCAR-4 ovarian and in the test with SK-MEL-2 melanoma was greater than 50 µM throughout. Moreover, the TGI with SK-OV-3 ovarian, with SW-620 colon and in the test on TK-10 renal was greater than 50 µM each time.
As to `O=C(O)C1OC(Oc2cc(O)c3c(=O)cc(-c4ccc(O)cc4)oc3c2)C(O)C(O)C1O` (stereo unspecified), the TGI with HCT-116 colon, in the test with NCI-H522 lung, in the test on OVCAR-4 ovarian, with SK-MEL-2 melanoma, in the test on SW-620 colon and in the test with TK-10 renal was greater than 100 µM each time.
For the compound `COc1cc(-c2cc(CCC(=O)Nc3ccccc3[N+](=O)[O-])n(-c3ccc([N+](=O)[O-])cc3[N+](=O)[O-])n2)ccc1O`, the GI50 is greater than 100 µM in the test on HCT-116 colon; greater than 10 µM in the test on HCT-15 colon; greater than 100 µM in the test on NCI-H522 lung; greater than 100 µM in the test on OVCAR-4 ovarian; greater than 100 µM in the test with SK-MEL-2 melanoma; greater than 100 µM with SK-OV-3 ovarian. For the same compound, the GI50 with SW-620 colon and in the test with TK-10 renal was greater than 100 µM in each case. The TGI in the test with HCT-116 colon, in the test on HCT-15 colon, with NCI-H522 lung, in the test with OVCAR-4 ovarian, with SK-MEL-2 melanoma and in the test with SK-OV-3 ovarian was greater than 100 µM in each case. The TGI in the test on SR leukemia was greater than 10 µM; in the test on SW-620 colon, greater than 100 µM; in the test on TK-10 renal, greater than 100 µM.
Turning to `Cc1cccc(NC(=O)CC#N)c1Cl`, the TGI with HCT-116 colon, in the test with HCT-15 colon, in the test on NCI-H522 lung, with SK-MEL-2 melanoma, with SK-OV-3 ovarian and in the test on SR leukemia was greater than 100 µM each time. Further, the TGI in the test with SW-620 colon and in the test on TK-10 renal was greater than 100 µM in each case.
As for `N#CC1=C(c2ccccc2)C(O)(c2ccccc2)NC1=O` (stereo unspecified), the TGI was greater than 100 µM with HCT-116 colon; greater than 100 µM with HCT-15 colon; greater than 100 µM in the test with OVCAR-4 ovarian; greater than 100 µM with SK-MEL-2 melanoma; 88.9 µM with SK-OV-3 ovarian; greater than 100 µM in the test with SR leukemia. The TGI with SW-620 colon and in the test on TK-10 renal was greater than 100 µM each time.
Consider `Oc1cc2c(cc1O)-c1[nH]ncc1CC2`, for which the TGI in the test with HCT-116 colon was greater than 100 µM; with HCT-15 colon, greater than 100 µM; in the test with NCI-H522 lung, 25.5 µM; in the test on SK-MEL-2 melanoma, greater than 100 µM; in the test with SK-OV-3 ovarian, greater than 100 µM; in the test on SR leukemia it was greater than 100 µM. For the same compound, the TGI in the test on SW-620 colon and in the test with TK-10 renal was greater than 100 µM in each case.
Consider `Cn1c(=S)sc2nc3ccccc3n2c1=S`, for which the TGI in the test with HCT-116 colon was 17.9 µM; in the test with HCT-15 colon, 29.4 µM; in the test with NCI-H522 lung it was 15.1 µM; with OVCAR-4 ovarian, 42.3 µM; in the test on SK-MEL-2 melanoma, greater than 100 µM; with SK-OV-3 ovarian it was 36.5 µM. Further, the TGI in the test on SR leukemia is 23.2 µM; in the test on SW-620 colon, 29.2 µM; in the test on TK-10 renal, 55.4 µM.
Regarding `CC(C)CC(=O)NS(=O)(=O)c1ccccc1`, the TGI with HCT-116 colon, in the test with HCT-15 colon, in the test on NCI-H522 lung, with OVCAR-4 ovarian, in the test on SK-MEL-2 melanoma and in the test on SK-OV-3 ovarian was greater than 100 µM each time. For the same compound, the TGI with SR leukemia, with SW-620 colon and in the test with TK-10 renal was greater than 100 µM each time.
For the compound `O=C([O-])c1ccccc1Nc1ccccc1[O-].[Ni+3].[OH3+].[OH3+].[OH3+]`, the GI50 with HCT-116 colon, in the test on HCT-15 colon, with NCI-H522 lung, in the test with OVCAR-4 ovarian, with SK-MEL-2 melanoma and in the test with SK-OV-3 ovarian was greater than 100 µM each time. Besides, the GI50 in the test with SR leukemia and in the test with SW-620 colon was greater than 100 µM throughout. Also, the TGI with HCT-116 colon, in the test with HCT-15 colon, in the test on NCI-H522 lung, with OVCAR-4 ovarian, in the test with SK-MEL-2 melanoma and in the test on SK-OV-3 ovarian was greater than 100 µM each time. In addition, the TGI with SR leukemia and in the test with SW-620 colon was greater than 100 µM in each case.
Consider `O=C(c1ccc2c3c(ccc(C(=O)C(F)(F)F)c13)CC2)C(F)(F)F`, for which the TGI is greater than 100 µM in the test on HCT-116 colon; greater than 100 µM with HCT-15 colon; 98.9 µM with NCI-H522 lung; greater than 100 µM in the test on OVCAR-4 ovarian; greater than 100 µM with SK-MEL-2 melanoma; greater than 100 µM in the test with SK-OV-3 ovarian. The TGI in the test on SR leukemia, in the test with SW-620 colon and in the test on TK-10 renal was greater than 100 µM in each case.
On to `CC(Oc1ccc2cc(C(=O)c3ccccc3)c(=O)oc2c1)C(=O)O` (stereo unspecified), for which the TGI in the test on HCT-116 colon, in the test on NCI-H522 lung, in the test on OVCAR-4 ovarian, with SK-OV-3 ovarian, with SR leukemia and in the test with SW-620 colon was greater than 100 µM in each case. Moreover, in the test with TK-10 renal, the TGI was greater than 100 µM.
